For eleven compounds, IC50 results are on record in patent US20250282799A1, “SUBSTITUTED PYRIDO[4,3-d]PYRIMIDINES AS KRAS MODULATORS” (Alterome Therapeutics, Inc., priority 2023, published 2025).

Structures are written as SMILES.

The subject of one test is KRAS G12V dependent lung adenocarcinoma cell line, NCI-H441. In words: Cellular pERK (Thr202/Tyr204) FRET/HTRF assay. The test is classed as cell-based. As to conditions: Homo sapiens, NCI-H441, cellular pERK (Thr202/Tyr204) HTRF, NCI-H441 cells. The text has this:
“Ras” refers to a protein in the Ras superfamily of small GTPases, such as in the Ras subfamily. […] The Ras proteins play a critical role in the regulation of cell behaviors, including proliferation, differentiation, and survival. […] KRAS G12V, G12D, and G12S variants are common in human cancers and Ras inhibitors binding in or near the Switch II pocket may provide mutant binding selectivity. RAS mutations are known to be often associated with pancreatic, colorectal and non-small-cell lung carcinomas (Lone, A. M. et al. J. Am. Chem. Soc. 2011,133, 11665-74, which is entirely incorporated herein by reference; Dillon, M. B.; Bachovchin, D. A.; Brown, S. J.; Finn, M. G.; Rosen, H.; Cravatt, B. F.; Mowen, K. A. ACS Chem. Biol. 2012, 7, 1198-204, which is entirely incorporated herein by reference; Bachovchin, D. A.; Brown, S. J.; Rosen, H.; Cravatt, B. F. Nat. Biotechnol. 2009, 27, 387-94, Ostrem, J. M.; Peters, U.; Sos, M. L.; Wells, J. A.; Shokat, K. M. Nature 2013, 503, 548-551. Ryan M. B. and Corcoran R. B, Nat. Rev Clin Onco. 2018, 11, 709-720.). Ras proteins are key members in the Ras/Raf/Mitogen-activated protein kinase (MAPK) signaling pathway. This pathway regulates a wide variety of cellular processes, including proliferation, differentiation, apoptosis, and stress responses. One way to measure the impact of an inhibitor of Ras proteins is to measure downstream phosphorylation of proteins in the MAPK pathway. The MAPK pathway includes extracellular signal-regulated kinases named ERK1 and ERK2, which are serine-threonine kinases that regulate cellular signaling under both normal and oncogenic conditions. ERK expression and hyperactivation via phosphorylation plays a major role in cancer progression and are downstream of Ras proteins. The assay used for measuring the downstream impact of Ras inhibition is the use of a highly sensitive cell-based readout of ERK phosphorylation (pERK) specifically on Threonine (Thr) 202 and Tyrosine (Tyr) 204 in a KRAS G12V dependent lung adenocarcinoma cell line, NCI-H441 (ATCC Cat #HTB-174). The assay described herein is suitable for assessing inhibition of Ras and can be tailored for any of the predominant oncogenic mutations in any isoform of Ras (e.g., KRAS, HRAS, and NRAS) by changing the cell line.
pERK was measured using an advanced pERK assay designed for the robust and highly sensitive quantification of ERK phosphorylation on Thr202/Tyr204. This assay is intended for the simple, rapid, and direct detection of endogenous levels of ERK1/2 in cells, but only when ERK is phosphorylated at Thr202 and Tyr204 (Perkin Elmer Catalog #64AERPEH). pERK was detected in a FRET based sandwich assay format using 2 different specific antibodies, one labelled with Eu3+-Cryptate (donor) and the second with d2 (acceptor). When the dyes are in close proximity, the excitation of the donor with a light source (laser or flash lamp) triggers a Fluorescence Resonance Energy Transfer (FRET) towards the acceptor, which in turn fluoresces at a specific wavelength (665 nm). The specific signal modulates positively in proportion to p-ERK1/2 (Thr202/Tyr204). The simple mix-and-read protocol eliminates all wash steps for faster analysis and high-quality output. Briefly, cells were diluted to the desired concentration per well based on a growth curve showing ˜75% confluence within a 24-hour time period at no less than 95% viability. Cell suspension (24 μL) were added into each well of 384-well culture plate and maintained in 37° C. 5% CO2 incubator overnight prior to assay. All compounds were transferred to stock plates using TECAN (EVO200) liquid handler using DMSO as the solubilizing and dilution agent. Test compounds were transferred onto adherent cells using an Echo655 liquid handler. DMSO was employed as negative control. Cells were incubated with test compounds for 1 hr in a 37° C., 5% CO2 incubator following compound addition. […]
Compound `[2H]C([2H])(Oc1nc(N2CCOC[C@H]3[C@H](F)[C@H]32)c2cc(C(F)(F)F)c(-c3ccc(F)c4sc(N)c(C#N)c34)c(F)c2n1)[C@@]12CCCN1C[C@H](F)C2` (atropisomer, axis not shown; (aS)) [Example 365, 2-amino-7-fluoro-4-((S)-8-fluoro-4-((1S,7S,8S)-8-fluoro-5-oxa-2-azabicyclo[5.1.0]octan-2-yl)-2-(((2R,7aS)-2-fluorotetrahydro-1H-pyrrolizin-7a(5H)-yl)methoxy-d2)-6-(trifluoromethyl)quinazolin-7-yl)benzo[b]thiophene-3-carbonitrile] came in with a 50% inhibitory concentration (IC50) of less than 50 nM.

Still in this test, the particulars now being: cellular pERK (Thr202/Tyr204) HTRF, NCI-H441 cells.
Take `[2H]C([2H])(Oc1nc(N2CCOC[C@H]3[C@H](F)[C@H]32)c2cc(C#N)c(-c3cc(N)cc4ccc(F)c(C#C)c34)c(F)c2n1)[C@@]12CCCN1C[C@H](F)C2` (atropisomer, axis not shown; (aS)) [Example 360, (R)-7-(3-amino-8-ethynyl-7-fluoronaphthalen-1-yl)-8-fluoro-4-((1S,7S,8S)-8-fluoro-5-oxa-2-azabicyclo[5.1.0]octan-2-yl)-2-(((2R,7aS)-2-fluorotetrahydro-1H-pyrrolizin-7a(5H)-yl)methoxy-d2)quinazoline-6-carbonitrile]: the IC50 was 500 to 10000 nM.
Still for that read-out and setting: under `[2H]C([2H])(Oc1nc(N2CCOC[C@H]3[C@H](F)[C@H]32)c2cc(Cl)c(-c3cc(N)cc4ccc(F)c(C#C)c34)c(F)c2n1)[C@@]12CCCN1C[C@H](F)C2` (atropisomer, axis not shown; (aS)) [Example 361, 4-((S)-6-chloro-8-fluoro-4-((1S,7S,8S)-8-fluoro-5-oxa-2-azabicyclo[5.1.0]octan-2-yl)-2-(((2R,7aS)-2-fluorotetrahydro-1H-pyrrolizin-7a(5H)-yl)methoxy-d2)quinazolin-7-yl)-5-ethynyl-6-fluoronaphthalen-2-amine] stands 500 to 10000 nM.
Still for that read-out and setting: then `[2H]C([2H])(Oc1nc(N2CCOC[C@H]3[C@H](F)[C@H]32)c2cc(C(F)(F)F)c(-c3ccc(F)c4sc(N)c(C#N)c34)c(F)c2n1)[C@@]12CCCN1C[C@H](F)C2` (atropisomer, axis not shown; (aS)) [Example 390, 2-amino-7-fluoro-4-((R)-8-fluoro-4-((1S,7S,8S)-8-fluoro-5-oxa-2-azabicyclo[5.1.0]octan-2-yl)-2-(((2R,7aS)-2-fluorotetrahydro-1H-pyrrolizin-7a(5H)-yl)methoxy-d2)-6-(trifluoromethyl)quinazolin-7-yl)benzo[b]thiophene-3-carbonitrile], with less than 50 nM; and `[2H]C([2H])(Oc1nc(N2CCOC[C@H]3[C@H](F)[C@H]32)c2cc(F)c(-c3cc(N)cc4ccc(F)c(C#C)c34)c(F)c2n1)[C@@]12CCCN1C[C@H](F)C2` (atropisomer, axis not shown; (aS)) [Example 391, 4-((R)-6,8-difluoro-4-((1S,7S,8S)-8-fluoro-5-oxa-2-azabicyclo[5.1.0]octan-2-yl)-2-(((2R,7aS)-2-fluorotetrahydro-1H-pyrrolizin-7a(5H)-yl)methoxy-d2)quinazolin-7-yl)-5-ethynyl-6-fluoronaphthalen-2-amine], with less than 50 nM.
On to `[2H]C([2H])(Oc1nc(N2CCOC[C@H]3[C@H](F)[C@H]32)c2cc(F)c(-c3cc(N)cc4ccc(F)c(C#C)c34)c(F)c2n1)[C@@]12CCCN1C[C@H](F)C2` (atropisomer, axis not shown; (aS)) [Example 400, 4-((S)-6,8-difluoro-4-((1S,7S,8S)-8-fluoro-5-oxa-2-azabicyclo[5.1.0]octan-2-yl)-2-(((2R,7aS)-2-fluorotetrahydro-1H-pyrrolizin-7a(5H)-yl)methoxy-d2)quinazolin-7-yl)-5-ethynyl-6-fluoronaphthalen-2-amine], for which the IC50 lay within 500 to 10000 nM.
On the same count and under the same terms, then `[2H]C([2H])(Oc1nc(N2CCOC[C@H]3[C@H](Cl)[C@H]32)c2cc(C(F)(F)F)c(-c3ccc(F)c4sc(N)c(C#N)c34)c(F)c2n1)[C@@]12CCCN1C[C@H](F)C2` (atropisomer, axis not shown; (aS)) [Example 418, 2-amino-4-((R)-4-((1S,7S,8S)-8-chloro-5-oxa-2-azabicyclo[5.1.0]octan-2-yl)-8-fluoro-2-(((2R,7aS)-2-fluorotetrahydro-1H-pyrrolizin-7a(5H)-yl)methoxy-d2)-6-(trifluoromethyl)quinazolin-7-yl)-7-fluorobenzo[b]thiophene-3-carbonitrile], with 500 to 10000 nM.
`[2H]C([2H])(Oc1nc(N2CCOC[C@@H]3[C@@H](Cl)[C@@H]32)c2cc(C(F)(F)F)c(-c3ccc(F)c4sc(N)c(C#N)c34)c(F)c2n1)[C@@]12CCCN1C[C@H](F)C2` (atropisomer, axis not shown; (aS)) [Example 419, 2-amino-4-((S)-4-((1R,7R,8R)-8-chloro-5-oxa-2-azabicyclo[5.1.0]octan-2-yl)-8-fluoro-2-(((2R,7aS)-2-fluorotetrahydro-1H-pyrrolizin-7a(5H)-yl)methoxy-d2)-6-(trifluoromethyl)quinazolin-7-yl)-7-fluorobenzo[b]thiophene-3-carbonitrile] registered an IC50 of 50 to 500 nM.
Still for that read-out and setting: under `[2H]C([2H])(Oc1nc(N2CCOC[C@H]3[C@H](Cl)[C@H]32)c2cc(C(F)(F)F)c(-c3ccc(F)c4sc(N)c(C#N)c34)c(F)c2n1)[C@@]12CCCN1C[C@H](F)C2` (atropisomer, axis not shown; (aS)) [Example 420, 2-amino-4-((S)-4-((1S,7S,8S)-8-chloro-5-oxa-2-azabicyclo[5.1.0]octan-2-yl)-8-fluoro-2-(((2R,7aS)-2-fluorotetrahydro-1H-pyrrolizin-7a(5H)-yl)methoxy-d2)-6-(trifluoromethyl)quinazolin-7-yl)-7-fluorobenzo[b]thiophene-3-carbonitrile] stands less than 50 nM; under `[2H]C([2H])(Oc1nc(N2CCOC[C@@H]3[C@@H](Cl)[C@@H]32)c2cc(C(F)(F)F)c(-c3ccc(F)c4sc(N)c(C#N)c34)c(F)c2n1)[C@@]12CCCN1C[C@H](F)C2` (atropisomer, axis not shown; (aS)) [Example 421, 2-amino-4-((R)-4-((1R,7R,8R)-8-chloro-5-oxa-2-azabicyclo[5.1.0]octan-2-yl)-8-fluoro-2-(((2R,7aS)-2-fluorotetrahydro-1H-pyrrolizin-7a(5H)-yl)methoxy-d2)-6-(trifluoromethyl)quinazolin-7-yl)-7-fluorobenzo[b]thiophene-3-carbonitrile], 500 to 10000 nM.

The test is the same for the next values; noted with them: cellular pERK HTRF, NCI-H441 (KRAS G12V) cells.
Take `[2H]C([2H])(Oc1nc(N2CCOC[C@H]3[C@H](F)[C@H]32)c2cc(F)c(-c3cc(N)cc4ccc(F)c(C#C)c34)c(C)c2n1)[C@@]12CCCN1C[C@H](F)C2` (atropisomer, axis not shown; (aS)) [Example 434, 5-Ethynyl-6-fluoro-4-((R)-6-fluoro-4-((1S,7S,8S)-8-fluoro-5-oxa-2-azabicyclo[5.1.0]octan-2-yl)-2-(((2R,7aS)-2-fluorotetrahydro-1H-pyrrolizin-7a(5H)-yl)methoxy-d2)-8-methylquinazolin-7-yl)naphthalen-2-amine]: the IC50 was in the range of 500 to 10000 nM.
